Laboratory results published in patent publication US20220324835A1 (Nurix Therapeutics, Inc., priority 2018, published 2022).

What was measured:
T-cell [1] = assay: IL-2 secretion from T-cells stimulated with anti-CD3 antibody alone (Biological Example 2); format: cell-based, human; settings: T-cell, fold change over baseline, primary human total T-cells, read-out: IL-2 secretion Anti-CD3 stimulation; for fold induction at 1 µM: 1 μM Cbl-b inhibitor; for fold induction at 8 µM: 8 μM Cbl-b inhibitor
T-cell [2] = assay: CD25 cell surface staining on T-cells stimulated with anti-CD3 antibody alone (Biological Example 2); format: cell-based, human; settings: T-cell, fold change over baseline, primary human total T-cells, read-out: CD25 staining Anti-CD3 stimulation; for fold induction at 1 µM: 1 μM Cbl-b inhibitor; for fold induction at 8 µM: 8 μM Cbl-b inhibitor

`CC(Sc1nncn1C)c1cc(F)cc(N2Cc3c(cccc3C(F)(F)F)C2=O)c1` [Compound 168, 2-[3-fluoro-5-[(1R)-1-[(4-methyl-1,2,4-triazol-3-yl)sulfanyl]ethyl]phenyl]-4-(trifluoromethyl)isoindolin-1-one] showed a fold induction at 1 µM (T-cell [1]) of under 0.05, a fold induction at 8 µM (T-cell [1]) of 0.051 to 0.1 and a fold induction at 1 µM (T-cell [2]) of 0.801 to 1. It also gave a fold induction at 8 µM (T-cell [2]) of 0.601 to 0.8.

For `C[C@H](Sc1nncn1C)c1cccc(N2Cc3c(ccnc3Cl)C2=O)c1` [Compound 167, 4-chloro-2-[3-[(1S)-1-[(4-methyl-1,2,4-triazol-3-yl)sulfanyl]ethyl]phenyl]-3H-pyrrolo[3,4-c]pyridin-1-one], the fold induction at 1 µM (T-cell [1]) was under 0.05, the fold induction at 8 µM (T-cell [1]) was 0.101 to 0.15 and the fold induction at 1 µM (T-cell [2]) was under 0.6. It also gave a fold induction at 8 µM (T-cell [2]) of 0.601 to 0.8.

`CNS(=O)(=O)c1cc(C(=O)Nc2cccc([C@H](C)Cc3nncn3C)c2)nc(C(F)(F)F)c1` [Compound 201, (R)-N-(3-(1-(4-methyl-4H-1,2,4-triazol-3-yl)propan-2-yl)phenyl)-4-(N-methylsulfamoyl)-6-(trifluoromethyl)picolinamide] was tested, and the fold induction at 1 µM (T-cell [1]) was 0.151 to 0.2, the fold induction at 8 µM (T-cell [1]) was over 0.201 and the fold induction at 1 µM (T-cell [2]) was 0.801 to 1. For the same molecule, the fold induction at 8 µM (T-cell [2]) was over 1.

`Cn1cnnc1C[C@](C)(F)c1cccc(N2Cc3c(cccc3C(F)(F)F)C2=O)c1` [Compound 298b, (S)-2-(3-(2-fluoro-1-(4-methyl-4H-1,2,4-triazol-3-yl)propan-2-yl)phenyl)-4-(trifluoromethyl)isoindolin-1-one] showed a fold induction at 1 µM (T-cell [1]) of 0.051 to 0.1, a fold induction at 8 µM (T-cell [1]) of 0.101 to 0.15 and a fold induction at 1 µM (T-cell [2]) of 0.601 to 0.8. The fold induction at 8 µM (T-cell [2]) was 0.801 to 1.

`Cc1ccc(C(=O)Nc2cccc([C@H](C)Sc3nncn3C)c2)nc1C` [Compound 35, (S)-5,6-Dimethyl-N-(3-(1-((4-methyl-4H-1,2,4-triazol-3-yl)thio)ethyl)phenyl)picolinamide] was tested, and the fold induction at 1 µM (T-cell [1]) was under 0.05, the fold induction at 8 µM (T-cell [1]) was over 0.201 and the fold induction at 1 µM (T-cell [2]) was under 0.6. It also gave a fold induction at 8 µM (T-cell [2]) of 0.601 to 0.8.

Work on `C[C@H](Sc1nncn1C)c1cccc(NC(=O)c2cc(C(=O)N3C[C@H](O)C[C@@H]3C)ccn2)c1` [Compound 151, 4-((2S,4R)-4-hydroxy-2-methylpyrrolidine-1-carbonyl)-N-(3-((S)-1-((4-methyl-4H-1,2,4-triazol-3-yl)thio)ethyl)phenyl)picolinamide] yielded a fold induction at 1 µM (T-cell [1]) of under 0.05, a fold induction at 8 µM (T-cell [1]) of under 0.05 and a fold induction at 1 µM (T-cell [2]) of under 0.6. The fold induction at 8 µM (T-cell [2]) was 0.601 to 0.8.

Molecule `C[C@H](Sc1nncn1C)c1cccc(NC(=O)c2cccc(C(C)(F)F)n2)c1` [Compound 81, (S)-6-(1,1-difluoroethyl)-N-(3-(1-((4-methyl-4H-1,2,4-triazol-3-yl)thio)ethyl)phenyl)picolinamide] has a fold induction at 1 µM (T-cell [1]) of under 0.05, a fold induction at 8 µM (T-cell [1]) of 0.151 to 0.2 and a fold induction at 1 µM (T-cell [2]) of 0.801 to 1. The fold induction at 8 µM (T-cell [2]) was over 1.

`CC(C)c1cccc(C(=O)Nc2cccc([C@H](C)Sc3nncn3C)c2)n1` [Compound 33, (S)-6-Isopropyl-N-(3-(1-((4-methyl-4H-1,2,4-triazol-3-yl)thio)ethyl)phenyl)picolinamide] was tested, and the fold induction at 1 µM (T-cell [1]) was under 0.05, the fold induction at 8 µM (T-cell [1]) was under 0.05 and the fold induction at 1 µM (T-cell [2]) was under 0.6. The fold induction at 8 µM (T-cell [2]) was 0.801 to 1.

Molecule `C[C@H](Sc1nncn1C)c1cc(F)cc(N2Cc3c(cccc3C(F)(F)F)C2=O)c1` [Compound 168a, 2-[3-fluoro-5-[(1S)-1-[(4-methyl-1,2,4-triazol-3-yl)sulfanyl]ethyl]phenyl]-4-(trifluoromethyl)isoindolin-1-one] has a fold induction at 1 µM (T-cell [1]) of under 0.05, a fold induction at 8 µM (T-cell [1]) of under 0.05 and a fold induction at 1 µM (T-cell [2]) of under 0.6. For the same molecule, the fold induction at 8 µM (T-cell [2]) was 0.801 to 1.

In the case of `C[C@H](Sc1nncn1C)c1cccc(NC(=O)c2cc(C(F)(F)F)cc(C3CC3)n2)c1` [Compound 69, (S)-6-cyclopropyl-N-(3-(1-((4-methyl-4H-1,2,4-triazol-3-yl)thio)ethyl)phenyl)-4-(trifluoromethyl)picolinamide], the fold induction at 1 µM (T-cell [1]) is reported as under 0.05, the fold induction at 8 µM (T-cell [1]) is reported as under 0.05 and the fold induction at 1 µM (T-cell [2]) is reported as under 0.6. It also gave a fold induction at 8 µM (T-cell [2]) of under 0.6.

With `C[C@H](Cc1nncn1C)c1cccc(NC(=O)c2cc(C(=O)N3C[C@@H](O)[C@H](F)C3)ccn2)c1` [Compound 240, 4-((3R,4R)-3-fluoro-4-hydroxypyrrolidine-1-carbonyl)-N-(3-((K)-1-(4-methyl-4H-1,2,4-triazol-3-yl)propan-2-yl)phenyl)picolinamide] the fold induction at 1 µM (T-cell [1]) was 0.151 to 0.2, the fold induction at 8 µM (T-cell [1]) was over 0.201 and the fold induction at 1 µM (T-cell [2]) was 0.601 to 0.8. It also gave a fold induction at 8 µM (T-cell [2]) of 0.801 to 1.

With `Cc1[nH]cnc1CC(C)c1cccc(N2Cc3c(cccc3C(F)(F)F)C2=O)c1` (stereo not drawn) [Compound 272, 2-[3-[1-(5-methyl-1H-imidazol-4-yl)propan-2-yl]phenyl]-4-(trifluoromethyl)isoindolin-1-one] the fold induction at 1 µM (T-cell [1]) was 0.101 to 0.15, the fold induction at 8 µM (T-cell [1]) was 0.101 to 0.15 and the fold induction at 1 µM (T-cell [2]) was under 0.6. For the same molecule, the fold induction at 8 µM (T-cell [2]) was under 0.6.

In the case of `C[C@H](Cc1nncn1C)c1cccc(NC(=O)c2cc(O[C@H]3CC[C@@H](O)C3)ccn2)c1` [Compound 206, 4-((1S,3R)-3-hydroxycyclopentyloxy)-N-(3-((R)-1-(4-methyl-4H-1,2,4-triazol-3-yl)propan-2-yl)phenyl)picolinamide], the fold induction at 1 µM (T-cell [1]) is reported as under 0.05, the fold induction at 8 µM (T-cell [1]) is reported as 0.051 to 0.1 and the fold induction at 1 µM (T-cell [2]) is reported as 0.801 to 1. The fold induction at 8 µM (T-cell [2]) was 0.801 to 1.

`Cc1ncc(C(=O)Nc2cccc([C@H](C)Sc3nncn3C)c2)nc1C1CC1` [Compound 70, (S)-6-cyclopropyl-5-methyl-N-(3-(1-((4-methyl-4H-1,2,4-triazol-3-yl)thio)ethyl)phenyl)pyrazine-2-carboxamide] was tested, and the fold induction at 1 µM (T-cell [1]) was under 0.05, the fold induction at 8 µM (T-cell [1]) was 0.051 to 0.1 and the fold induction at 1 µM (T-cell [2]) was 0.801 to 1. It also gave a fold induction at 8 µM (T-cell [2]) of 0.801 to 1.

Work on `C[C@H](Cc1nncn1C)c1cccc(NC(=O)c2cccc(S(C)(=O)=O)n2)c1` [Compound 185, (R)-N-(3-(1-(4-methyl-4H-1,2,4-triazol-3-yl)propan-2-yl)phenyl)-6-(methylsulfonyl)picolinamide] yielded a fold induction at 1 µM (T-cell [1]) of 0.051 to 0.1, a fold induction at 8 µM (T-cell [1]) of 0.051 to 0.1 and a fold induction at 1 µM (T-cell [2]) of under 0.6. For the same molecule, the fold induction at 8 µM (T-cell [2]) was under 0.6.

Work on `C[C@H](Sc1nncn1C)c1ccnc(NC(=O)c2cc3c(C(F)(F)F)cccc3[nH]2)c1` [Compound 120, N-[4-[(1S)-1-[(4-methyl-1,2,4-triazol-3-yl)sulfanyl]ethyl]-2-pyridyl]-4-(trifluoromethyl)-1H-indole-2-carboxamide] yielded a fold induction at 1 µM (T-cell [1]) of under 0.05, a fold induction at 8 µM (T-cell [1]) of under 0.05 and a fold induction at 1 µM (T-cell [2]) of under 0.6. The fold induction at 8 µM (T-cell [2]) was under 0.6.

`C[C@H](Sc1nncn1C)c1ccnc(N2Cc3c(cccc3C(F)(F)F)C2=O)c1` [Compound 172a, (S)-(4-(1-((4-methyl-4H-1,2,4-triazol-3-yl)thio)ethyl)pyridin-2-yl)-4-(trifluoromethyl)isoindolin-1-one] gave a fold induction at 1 µM (T-cell [1]) of under 0.05, a fold induction at 8 µM (T-cell [1]) of under 0.05 and a fold induction at 1 µM (T-cell [2]) of under 0.6. The fold induction at 8 µM (T-cell [2]) was under 0.6.

`C[C@H](Sc1nncn1C)c1cccc(NC(=O)c2cc(C(F)(F)F)ccn2)c1` [Compound 32, (S)-N-(3-(1-((4-Methyl-4H-1,2,4-triazol-3-yl)thio)ethyl)phenyl)-4-(trifluoromethyl)picolinamide] showed a fold induction at 1 µM (T-cell [1]) of under 0.05, a fold induction at 8 µM (T-cell [1]) of 0.101 to 0.15 and a fold induction at 1 µM (T-cell [2]) of 0.601 to 0.8. For the same molecule, the fold induction at 8 µM (T-cell [2]) was over 1.

Molecule `Cc1conc1C[C@@H](C)c1cccc(NC(=O)c2ccnc(C(F)(F)F)n2)c1` [Compound 213a, (R)-N-(3-(1-(4-methylisoxazol-3-yl)propan-2-yl)phenyl)-2-(trifluoromethyl)pyrimidine-4-carboxamide] has a fold induction at 1 µM (T-cell [1]) of 0.051 to 0.1, a fold induction at 8 µM (T-cell [1]) of 0.101 to 0.15 and a fold induction at 1 µM (T-cell [2]) of 0.801 to 1. It also gave a fold induction at 8 µM (T-cell [2]) of over 1.

`C[C@H](Cc1nncn1C)c1cccc(NC(=O)c2cc(C(=O)N3CC(O)C(F)(F)C3)ccn2)c1` (stereo partly drawn) [Compound 243, 4-(3,3-difluoro-4-hydroxypyrrolidine-1-carbonyl)-N-[3-[(2R)-1-(4-methyl-4H-1,2,4-triazol-3-yl)propan-2-yl]phenyl]pyridine-2-carboxamide] gave a fold induction at 1 µM (T-cell [1]) of over 0.201, a fold induction at 8 µM (T-cell [1]) of over 0.201 and a fold induction at 1 µM (T-cell [2]) of 0.601 to 0.8. It also gave a fold induction at 8 µM (T-cell [2]) of 0.801 to 1.

`Cn1cnnc1C(F)(F)[C@](C)(F)c1cccc(N2Cc3c(cccc3C(F)(F)F)C2=O)c1` [Compound 296a, (R)-2-(3-(1,1,2-trifluoro-1-(4-methyl-4H-1,2,4-triazol-3-yl)propan-2-yl)phenyl)-4-(trifluoromethyl)isoindolin-1-one] showed a fold induction at 1 µM (T-cell [1]) of 0.151 to 0.2, a fold induction at 8 µM (T-cell [1]) of over 0.201 and a fold induction at 1 µM (T-cell [2]) of 0.601 to 0.8. The fold induction at 8 µM (T-cell [2]) was over 1.

For `C[C@H](Sc1nncn1C)c1cccc(NC(=O)c2cc3c(Cl)cccc3[nH]2)c1` [Compound 78, 4-chloro-A-[3-[(LS)-1-[(4-methyl-1,2,4-triazol-3-yl)sulfanyl]ethyl]phenyl]-1H-indole-2-carboxamide], the fold induction at 1 µM (T-cell [1]) was under 0.05, the fold induction at 8 µM (T-cell [1]) was over 0.201 and the fold induction at 1 µM (T-cell [2]) was 0.601 to 0.8. For the same molecule, the fold induction at 8 µM (T-cell [2]) was 0.801 to 1.

For `C[C@H](Cc1nncn1C1CC1)c1cccc(N2Cc3c(cccc3C(F)(F)F)C2=O)c1` [Compound 265, (R)-2-(3-(1-(4-cyclopropyl-4H-1,2,4-triazol-3-yl)propan-2-yl)phenyl)-4-(trifluoromethyl)isoindolin-1-one], the fold induction at 1 µM (T-cell [1]) was under 0.05, the fold induction at 8 µM (T-cell [1]) was under 0.05 and the fold induction at 1 µM (T-cell [2]) was 0.601 to 0.8. It also gave a fold induction at 8 µM (T-cell [2]) of 0.801 to 1.

Work on `C[C@H](Sc1nncn1C)c1ccnc(NC(=O)c2cc(C3CC3)cc(C(F)(F)F)n2)c1` [Compound 104, (S)-4-cyclopropyl-N-(4-(1-((4-methyl-4H-1,2,4-triazol-3-yl)thio)ethyl)pyridin-2-yl)-6-(trifluoromethyl)picolinamide] yielded a fold induction at 1 µM (T-cell [1]) of under 0.05, a fold induction at 8 µM (T-cell [1]) of under 0.05 and a fold induction at 1 µM (T-cell [2]) of 0.601 to 0.8. It also gave a fold induction at 8 µM (T-cell [2]) of 0.801 to 1.
